Laboratory results published in patent US11685744B2, “CDK inhibitors and their use as pharmaceuticals” (Prelude Therapeutics, Incorporated, priority 2020, dated 2023).

Tests used:
CDK4/Cyclin D1 = CDK4/Cyclin D1 (Homo sapiens (Human), UniProt P11802); test: CDK4/CyclinD1 enzymatic activity assay (TR-FRET); type: biochemical; settings: ATP 2 mM, read-out: CDK4_D1 IC50
Procedure: CDK4/CyclinD1 Enzymatic Activity Assay
The inhibitory activity of compounds was evaluated in vitro using TR-FRET assay with white 384-well low volume microplate (Greiner Bio-One). CDK4/Cyclin D1 catalyzed phosphorylation of peptide in the presence and absence of compounds was measured. IC50 determination. Recombinant protein complex CDK4/Cyclin D1, expressed from insect cell, was purchased from ProQinase. Testing compounds were dissolved in DMSO at 0.1 mM and tested in 9-dose IC50 mode. The reaction mixture was prepared by mixing CDK4/CyclinD1 (1 nM final), ULight-4E-BP1 (100 nM final, Perkinelmer, TRF0128-D), and ATP (2 mM final) in assay buffer (20 mM of HEPES pH 7.4, 1 mM of EGTA, 0.05% BSA, 0.005% Tween 20, and 1 mM TCEP). The compound of interest in DMSO was added to each well in 3-fold serial dilution by dispenser (TECAN D300E). After 20 minutes preincubation at room temperature, MgCl2 (10 mM final) was added to initiate the reaction. Following a 60 minutes incubation at 37° C., the reaction was stopped by addition of 2 μL of quenching buffer consisting of Lance detection buffer (Perkinelmer CR97-100C), 2 nM LANCE Ultra Europium-anti-P-4E-BP1 (Perkinelmer, TRF0216-D), 10 mM EDTA, and incubate at room temperature for additional 60 minutes in dark. The reaction signal was measured by Envision multimode plate reader (PerkinElmer, 2102-0010). IC50 values were determined by fitting the data to the standard 4 parameters with Hill Slope using GraphPad Prism software.

[1] = test system: MCF7 adenocarcinoma cell line; test: Cell proliferation studies in MCF7 cells (ATP-Lite, 10 days); type: cell-based; settings: Homo sapiens, 240 h, read-out: PROLIFERATION_CTG_MCF7 IC50
Procedure: Cell Proliferation Studies in MCF7 Cells
Cell proliferation studies were conducted in MCF7 adenocarcinoma cell line. Cells were maintained in DMEM (Coming, Catalog #: 10-013-CV) supplemented with 10% v/v FBS (Gibco, Catalog #: 26140-079), 1% v/v Penicillin Streptomycin (Gibco, Catalog #15140-122) Cells were seeded in 384-well plates at a density of 100 or 200 cells/well. Compounds dissolved in DMSO were plated in quadruplicate using a digital dispenser (D300E, Tecan) and tested on a 9-point 3-fold serial dilution. Cells were incubated for 10 days in a 37° C. active humidified incubator at 5% CO2. A media exchange and second compound addition were performed on day 5. Cell viability was measured using the ATP-Lite 1-Step Luminescence reagent (Perkin Elmer, Catalog #: 6016731) as per manufacturer's instructions. Luminescence signal was measured with a multimode plate reader (Envision 2105, Perkin Elmer). Raw data files were imported to Dotmatics Screening Ultra for IC50 analysis. Luminescence values were normalized to both background and DMSO controls to obtain a percentage of viable cells relative to DMSO vehicle control.

CDK4/Cyclin D1, sequence (P11802 whole entry): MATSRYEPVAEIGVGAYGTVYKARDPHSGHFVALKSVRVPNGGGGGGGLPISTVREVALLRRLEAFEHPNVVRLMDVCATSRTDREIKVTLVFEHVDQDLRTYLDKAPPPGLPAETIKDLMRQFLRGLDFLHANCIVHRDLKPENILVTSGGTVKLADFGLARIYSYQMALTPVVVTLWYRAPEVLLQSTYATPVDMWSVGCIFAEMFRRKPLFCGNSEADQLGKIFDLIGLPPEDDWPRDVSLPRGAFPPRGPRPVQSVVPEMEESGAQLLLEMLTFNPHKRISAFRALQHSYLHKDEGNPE
CDK4/Cyclin D1, sequence (P24385 whole entry partner): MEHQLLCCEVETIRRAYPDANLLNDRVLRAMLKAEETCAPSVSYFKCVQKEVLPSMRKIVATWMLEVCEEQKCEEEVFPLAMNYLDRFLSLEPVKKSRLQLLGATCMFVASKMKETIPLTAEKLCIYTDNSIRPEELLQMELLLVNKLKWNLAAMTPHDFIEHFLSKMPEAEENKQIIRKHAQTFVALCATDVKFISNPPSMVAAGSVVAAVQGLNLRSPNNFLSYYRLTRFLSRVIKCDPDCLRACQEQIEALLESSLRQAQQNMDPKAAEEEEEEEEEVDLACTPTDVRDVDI

Structure (SMILES) | IC50 (CDK4/Cyclin D1) [nM] | IC50 [1] [nM]
Cc1nc2cc(-c3nc(Nc4ccc(N5CCN(C)CC5)cn4)ncc3F)sc2n1C1CCCC1 [Example 13, 4-(3-Cyclopentyl-2-methyl-3H-thieno[2,3-d]imidazol-5-yl)-5-fluoro-N-(5-(4-methylpiperazin-1-yl)pyridin-2-yl)pyrimidin-2-amine] | ≤ 20 | 20 to 200
CCN1CCN(c2ccc(Nc3ncc(F)c(-c4cc5nccc(C(C)C)c5s4)n3)nc2)CC1 [Example 14, N-[5-(4-Ethylpiperazin-1-yl)pyridin-2-yl]-5-fluoro-4-(7-propan-2-ylthieno[3,2-b]pyridin-2-yl)pyrimidin-2-amine] | ≤ 20 | 20 to 200
CCN1CCN(c2ccc(Nc3ncc(F)c(-c4sc5c(C6CCCC6)ccnc5c4Cl)n3)nc2)CC1 [Example 16, 4-(3-Chloro-7-cyclopentylthieno[3,2-b]pyridin-2-yl)-N-[5-(4-ethylpiperazin-1-yl)pyridin-2-yl]-5-fluoropyrimidin-2-amine] | ≤ 20 | 20 to 200
CCN1CC2(C1)CN(c1ccc(Nc3ncc(F)c(-c4cc5nccc(C(C)(O)C(F)(F)F)c5s4)n3)nc1)C2 (stereo not drawn) [Example 18, 2-[2-[2-[[5-(6-Ethyl-2,6-diazaspiro[3.3]heptan-2-yl)pyridin-2-yl]amino]-5-fluoropyrimidin-4-yl]thieno[3,2-b]pyridin-7-yl]-1,1,1-trifluoropropan-2-ol] | 20 to 200 | 20 to 200
CCN1CCN(Cc2ccc(Nc3ncc(F)c(-c4cc5nccc(C(C)C)c5s4)n3)nc2)CC1 [Example 19, N-[5-[(4-Ethylpiperazin-1-yl)methyl]pyridin-2-yl]-5-fluoro-4-(7-propan-2-ylthieno[3,2-b]pyridin-2-yl)pyrimidin-2-amine] | 20 to 200 | 200 to 2000
CCN1CCC(c2ccc(Nc3ncc(F)c(-c4sc5c(C6CCCC6)ccnc5c4Cl)n3)nc2)CC1 [Example 20, 4-(3-Chloro-7-cyclopentylthieno[3,2-b]pyridin-2-yl)-N-[5-(1-ethylpiperidin-4-yl)pyridin-2-yl]-5-fluoropyrimidin-2-amine] | ≤ 20 | 20 to 200
CCN1CCN(Cc2ccc(Nc3ncc(F)c(-c4sc5c(C6CCCC6)ccnc5c4C)n3)nc2)CC1 [Example 22, 4-(7-Cyclopentyl-3-methylthieno[3,2-b]pyridin-2-yl)-N-(5-((4-ethylpiperazin-1-yl)methyl)pyridin-2-yl)-5-fluoropyrimidin-2-amine] | 20 to 200 | 200 to 2000
CCN1CCN(c2ccc(Nc3ncc(F)c(-c4cc5nccc(C6CCCC6)c5s4)n3)nc2)CC1 [Example 24, 4-(7-Cyclopentylthieno[3,2-b]pyridin-2-yl)-N-[5-(4-ethylpiperazin-1-yl)pyridin-2-yl]-5-fluoropyrimidin-2-amine] | 20 to 200 | 200 to 2000
CCN1CCN(Cc2ccc(Nc3ncc(F)c(-c4cc5nccc(C(C)(O)C(F)(F)F)c5s4)n3)nc2)CC1 (stereo not drawn) [Example 25, 2-[2-[2-[[5-[(4-Ethylpiperazin-1-yl)methyl]pyridin-2-yl]amino]-5-fluoropyrimidin-4-yl]thieno[3,2-b]pyridin-7-yl]-1,1,1-trifluoropropan-2-ol] | 20 to 200 | 20 to 200
Cc1c(-c2nc(Nc3ccc(C4CCN(C)CC4)cn3)ncc2F)sc2c(C3CCCC3)ccnc12 [Example 26, 4-(7-Cyclopentyl-3-methylthieno[3,2-b]pyridin-2-yl)-5-fluoro-N-(5-(1-methylpiperidin-4-yl)pyridin-2-yl)pyrimidin-2-amine] | ≤ 20 | 20 to 200
CCN1CCN(Cc2ccc(Nc3ncc(F)c(-c4cc5nccc(C(C)(C)O)c5s4)n3)nc2)CC1 [Example 27, 2-[2-[2-[[5-[(4-Ethylpiperazin-1-yl)methyl]pyridin-2-yl]amino]-5-fluoropyrimidin-4-yl]thieno[3,2-b]pyridin-7-yl]propan-2-ol] | 20 to 200 | 200 to 2000
Cc1c(-c2nc(Nc3ccc(N4CCN(C)CC4)cn3)ncc2F)sc2c(C3CCCC3)ccnc12 [Example 28, 4-(7-Cyclopentyl-3-methylthieno[3,2-b]pyridin-2-yl)-5-fluoro-N-(5-(4-methylpiperazin-1-yl)pyridin-2-yl)pyrimidin-2-amine] | 20 to 200 | 200 to 2000
CCN1CCN(c2ccc(Nc3ncc(F)c(-c4cc5nccc(C(C)(O)C(F)(F)F)c5s4)n3)nc2)CC1 (stereo not drawn) [Example 29, 2-[2-[2-[[5-(4-Ethylpiperazin-1-yl)pyridin-2-yl]amino]-5-fluoropyrimidin-4-yl]thieno[3,2-b]pyridin-7-yl]-1,1,1-trifluoropropan-2-ol] | 20 to 200 | 20 to 200
CCN1CCN(c2ccc(Nc3ncc(F)c(-c4sc5c(C6CCCC6)ccnc5c4C)n3)nc2)CC1 [Example 31, 4-(7-Cyclopentyl-3-methylthieno[3,2-b]pyridin-2-yl)-N-(5-(4-ethylpiperazin-1-yl)pyridin-2-yl)-5-fluoropyrimidin-2-amine] | 20 to 200 | 200 to 2000

More lines, now with the values ahead:

IC50 (CDK4/Cyclin D1) [nM] | IC50 [1] [nM] | Structure (SMILES)
≤ 20 | 200 to 2000 | Cc1c(-c2nc(Nc3ccc(N4CC5(CNC5)C4)cn3)ncc2F)sc2c(C3CCCC3)ccnc12 [Example 32, N-(5-(2,6-Diazaspiro[3.3]heptan-2-yl)pyridin-2-yl)-4-(7-cyclopentyl-3-methylthieno[3,2-b]pyridin-2-yl)-5-fluoropyrimidin-2-amine]
≤ 20 | 200 to 2000 | CCN1CCN(Cc2ccc(Nc3ncc(F)c(-c4cc5nccc(C6CCCC6)c5s4)n3)nc2)CC1 [Example 33, 4-(7-Cyclopentylthieno[3,2-b]pyridin-2-yl)-N-[5-[(4-ethylpiperazin-1-yl)methyl]pyridin-2-yl]-5-fluoropyrimidin-2-amine]
≤ 20 | 20 to 200 | CN1CCC(c2ccc(Nc3ncc(F)c(-c4cc5nccc(C6CCCC6)c5s4)n3)nc2)CC1 [Example 34, 4-(7-Cyclopentylthieno[3,2-b]pyridin-2-yl)-5-fluoro-N-(5-(1-methylpiperidin-4-yl)pyridin-2-yl)pyrimidin-2-amine]
20 to 200 | 200 to 2000 | Fc1cnc(Nc2ccc(N3CCNCC3)cn2)nc1-c1cc2nccc(C3CCCC3)c2s1 [Example 36, 4-(7-Cyclopentylthieno[3,2-b]pyridin-2-yl)-5-fluoro-N-(5-piperazin-1-ylpyridin-2-yl)pyrimidin-2-amine]
20 to 200 | 200 to 2000 | CN1CCN(c2ccc(Nc3ncc(F)c(-c4cc5nccc(C6CCCC6)c5s4)n3)nc2)CC1 [Example 37, 4-(7-Cyclopentylthieno[3,2-b]pyridin-2-yl)-5-fluoro-N-[5-(4-methylpiperazin-1-yl)pyridin-2-yl]pyrimidin-2-amine]
20 to 200 | > 2000 | Cc1c(-c2nc(Nc3ccc(N4CCOCC4)cn3)ncc2F)sc2c(C3CCCC3)ccnc12 [Example 38, 4-(7-Cyclopentyl-3-methylthieno[3,2-b]pyridin-2-yl)-5-fluoro-N-(5-morpholinopyridin-2-yl)pyrimidin-2-amine]
20 to 200 | 200 to 2000 | COC1CCN(c2ccc(Nc3ncc(F)c(-c4cc5nccc(C6CCCC6)c5s4)n3)nc2)CC1 [Example 39, 4-(7-Cyclopentylthieno[3,2-b]pyridin-2-yl)-5-fluoro-N-[5-(4-methoxypiperidin-1-yl)pyridin-2-yl]pyrimidin-2-amine]
20 to 200 | > 2000 | Fc1cnc(Nc2ccc(N3CCOCC3)cn2)nc1-c1cc2nccc(C3CCCC3)c2s1 [Example 40, 4-(7-Cyclopentylthieno[3,2-b]pyridin-2-yl)-5-fluoro-N-(5-morpholinopyridin-2-yl)pyrimidin-2-amine]
200 to 2000 | > 2000 | Fc1cnc(Nc2ccc(N3CCC(F)(F)C3)cn2)nc1-c1cc2nccc(C3CCCC3)c2s1 [Example 41, 4-(7-Cyclopentylthieno[3,2-b]pyridin-2-yl)-N-[5-(3,3-difluoropyrrolidin-1-yl)pyridin-2-yl]-5-fluoropyrimidin-2-amine]
200 to 2000 | > 2000 | Fc1cnc(Nc2ccc(N3CCOCC3)cn2)nc1-c1cc2c(C3CCCC3)ccnc2s1 [Example 42, 4-(4-Cyclopentylthieno[2,3-b]pyridin-2-yl)-5-fluoro-N-(5-morpholin-4-ylpyridin-2-yl)pyrimidin-2-amine]
